# According to patent US6972286B2, “Oxazolidinones having a benzannulated 6- or 7-membered heterocycle” (Pharmacia and Upjohn Company, priority 2000, dated 2005):
# Test system: Streptococcus pneumoniae
# Experiment: Minimum inhibitory concentration (MIC) by agar dilution
# Type: cell-based
# Conditions: in vitro, agar dilution (NCCLS 1993), Streptococcus pneumoniae strain SPNE 9912; read-out: Antibacterial Activity Minimum Inhibitory Concentration SPNE 9912
# Text: The oxazolidinone antibacterial agents of this invention have useful activity against a variety of organisms. The in vitro activity of compounds of this invention can be assessed by standard testing procedures such as the determination of minimum inhibitory concentration (MIC) by agar dilution as described in “Approved Standard. Methods for Dilution Antimicrobial Susceptibility Tests for Bacteria That Grow Aerobically”, 3rd. ed., published 1993 by the National Committee for Clinical Laboratory Standards, Villanova, Pa. USA.
row,MIC,Structure (SMILES)
1,1 µg/mL,"COC(=O)N1CCc2cc(N3C[C@H](CNC(C)=O)OC3=O)ccc2C1 [Example 1, (−)-Methyl 6-[(5S)-5-[(acetylamino)methyl]-2-oxo-3-oxazolidinyl]-3,4-dihydro-2(1H)-isoquinolinecarboxylate]"
2,1 µg/mL,"CC(=O)NC[C@H]1CN(c2ccc3c(c2)CCN(C=O)C3)C(=O)O1 [Example 2, (−)-N-[[(5S)-3-[2-Formyl-1,2,3,4-tetrahydro-6-isoquinolinyl]-2-oxo-5-oxazolidinyl]methyl]acetamide]"
3,1 µg/mL,"CC(=O)NC[C@H]1CN(c2ccc3c(c2)CCN(C(=O)COC(C)=O)C3)C(=O)O1 [Example 3, (−)-N-[[(5S)-3-[2-[(Acetyloxy)acetyl]-1,2,3,4-tetrahydro-6-isoquinolinyl]-2-oxo-5-oxazolidinyl]methyl]acetamide]"
4,1 µg/mL,"CC(=O)NC[C@H]1CN(c2ccc3c(c2)CCN(C(=O)CO)C3)C(=O)O1 [Example 4, (−)-N-[[(5S)-3-[2-[(Hydroxy)acetyl]-1,2,3,4-tetrahydro-6-isoquinolinyl]-2-oxo-5-oxazolidinyl]methyl]acetamide]"
5,< 0.5 µg/mL,"COC(=O)N1CCc2cc(N3C[C@H](CNC(C)=S)OC3=O)ccc2C1 [Example 5, (+)-Methyl 6-[(5S)-5-[(ethanethioylamino)methyl]-2-oxo-3-oxazolidinyl]-3,4-dihydro-2(1H)-isoquinolinecarboxylate]"
6,< 0.5 µg/mL,"CC(=S)NC[C@H]1CN(c2ccc3c(c2)CCN(C=O)C3)C(=O)O1 [Example 6, (+)-N-[[(5S)-3-[2-Formyl-1,2,3,4-tetrahydro-6-isoquinolinyl]-2-oxo-5-oxazolidinyl]methyl]ethanethioamide]"
7,< 0.5 µg/mL,"CC(=S)NC[C@H]1CN(c2ccc3c(c2)CCN(C(=O)CO)C3)C(=O)O1 [Example 7, (+)-N-[[(5S)-3-[2-[(Hydroxy)acetyl]-1,2,3,4-tetrahydro-6-isoquinolinyl]-2-oxo-5-oxazolidinyl]methyl]ethanethioamide]"
8,4 µg/mL,"CC(=O)NC[C@H]1CN(c2ccc3c(c2)CCOC3)C(=O)O1 [Example 8, (−)-N-[[(5S)-3-(3,4-Dihydro-1H-2-benzopyran-6-yl)-2-oxo-5-oxazolidinyl]methyl]acetamide]"
9,1 µg/mL,"CC(=S)NC[C@H]1CN(c2ccc3c(c2)CCOC3)C(=O)O1 [Example 9, (+)-N-[[(5S)-3-(3,4-Dihydro-1H-2-benzopyran-6-yl)-2-oxo-5-oxazolidinyl]methyl]ethanethioamide]"
10,0.5 µg/mL,"CC(=O)NC[C@H]1CN(c2ccc3c(c2)CSCC3)C(=O)O1 [Example 14, (−)-N-[[(5S)-3-(3,4-Dihydro-1H-2-benzothiopyran-7-yl)-2-oxo-5-oxazolidinyl]methyl]acetamide]"
11,0.125 µg/mL,"CC(=S)NC[C@H]1CN(c2ccc3c(c2)CSCC3)C(=O)O1 [Example 15, (+)-N-[[(5S)-3-(3,4-Dihydro-1H-2-benzothiopyran-7-yl)-2-oxo-5-oxazolidinyl]methyl]ethanethioamide]"
12,1 µg/mL,"CC(=S)NC[C@H]1CN(c2ccc3c(c2)CS(=O)(=O)CC3)C(=O)O1 [Example 16, (+)-N-[[(5S)-3-(3,4-Dihydro-2,2-dioxido-1H-2-benzothiopyran-7-yl)-2-oxo-5-oxazolidinyl]methyl]ethanethioamide]"
13,2 µg/mL,"CC(=O)NC[C@H]1CN(c2ccc3c(c2)C[S+]([O-])CC3)C(=O)O1 (stereo partly drawn) [Example 17, N-[[(5S)-3-(3,4-Dihydro-2-oxido-1H-2-benzothiopyran-7-yl)-2-oxo-5-oxazolidinyl]methyl]acetamide]"
14,1 µg/mL,"CC(=S)NC[C@H]1CN(c2ccc3c(c2)CN(C=O)CC3)C(=O)O1 [Example 18, (+)-N-[[(5S)-3-[2-Formyl-1,2,3,4-tetrahydro-7-isoquinolinyl]-2-oxo-5-oxazolidinyl]methyl]ethanethioamide]"
15,2 µg/mL,"CC(=S)NC[C@H]1CN(c2ccc3c(c2)CN(C(=O)CO)CC3)C(=O)O1 [Example 19, (+)-N-[[(5S)-3-[2-[(Hydroxy)acetyl]-1,2,3,4-tetrahydro-7-isoquinolinyl]-2-oxo-5-oxazolidinyl]methyl]ethanethioamide]"
16,< 0.5 µg/mL,"CC(=O)NC[C@H]1CN(c2ccc3c(c2)CCCCN3C=O)C(=O)O1 [Example 20, N-{[(5S)-3-(1-Formyl-2,3,4,5-tetrahydro-1H-1-benzazepin-7-yl)-2-oxo-1,3-oxazolidin-5-yl]methyl}acetamide]"
17,< 0.5 µg/mL,"CC(=S)NC[C@H]1CN(c2ccc3c(c2)CCCCN3C=O)C(=O)O1 [Example 21, N-{[(5S)-3-(1-Formyl-2,3,4,5-tetrahydro-1H-1-benzazepin-7-yl)-2-oxo-1,3-oxazolidin-5-yl]methyl}ethanethioamide]"
18,< 0.5 µg/mL,CC(=O)NC[C@H]1CN(c2ccc3c(c2)CCN(C(=O)OCc2ccccc2)CC3)C(=O)O1 [Example 22]
19,< 0.5 µg/mL,"CC(=O)NC[C@H]1CN(c2ccc3c(c2)CCN(C=O)CC3)C(=O)O1 [Example 23, N-{[(5S)-3-(3-Formyl-1,2,4,5-tetrahydro-1H-3-benzazepin-7-yl)-2-oxo-1,3-oxazolidin-5-yl]methyl}acetamide]"

row,MIC,Structure (SMILES)
1,< 0.5 µg/mL,"CC(=O)NC[C@H]1CN(c2ccc3c(c2)CCN(C(=O)CO)CC3)C(=O)O1 [Example 24, N-{[(55)-3-(3-Glycoloyl-1,2,4,5-tetrahydro-1H-3-benzazepin-7-yl)-2-oxo-1,3-oxazolidin-5-yl]methyl}acetamide]"
2,1 µg/mL,"CC(=O)NC[C@H]1CN(c2ccc3c(c2)CCN(C(C)=O)CC3)C(=O)O1 [Example 25, N-{[(5S)-3-(3-Acetyl-1,2,4,5-tetrahydro-1H-3-benzazepin-7-yl)-2-oxo-1,3-oxazolidin-5-yl]methyl}acetamide]"
3,1 µg/mL,"COC(=O)N1CCc2ccc(N3C[C@H](CNC(C)=O)OC3=O)cc2CC1 [Example 26, Methyl 7-{(5S)-5-[(acetylamino)methyl]-2-oxo-1,3-oxazolidin-3-yl}-1,2,4,5-tetrahydro-3H-3-benzazepine-3-carboxylate]"
4,1 µg/mL,"CC(=O)NC[C@H]1CN(c2ccc3c(c2)CCN(C(=O)c2ccccc2)CC3)C(=O)O1 [Example 27, N-{[(5S)-3-(3-Benzoyl-1,2,4,5-tetrahydro-1H-3-benzazepin-7-yl)-2-oxo-1,3-oxazolidin-5-yl]methyl}acetamide]"
5,4 µg/mL,"CC(=O)NC[C@H]1CN(c2ccc3c(c2)CCN(S(C)(=O)=O)CC3)C(=O)O1 [Example 28, N-({(5)-3-[3-(Methylsulfonyl)-1,2,4,5-tetrahydro-1H-3-benzazepin-7-yl]-2-oxo-1,3-oxazolidin-5-yl}methyl)acetamide]"
6,2 µg/mL,"CC(=O)NC[C@H]1CN(c2ccc3c(c2)CCN(C(=O)Oc2ccccc2)CC3)C(=O)O1 [Example 29, Phenyl 7-{(5S)-5-[(acetylamino)methyl]-2-oxo-1,3-oxazolidin-3-yl}-1,2,4,5-tetrahydro-3H-3-benzazepine-3-carboxylate]"
7,1 µg/mL,"CC(=O)NC[C@H]1CN(c2ccc3c(c2)CCN(C(=O)Cc2ccccc2)CC3)C(=O)O1 [Example 30, N-[((5S)-3-{3-(Phenyl)acetyl-1,2,4,5-tetrahydro-1H-3-benzazepin-7-yl}-2-oxo-1,3-oxazolidin-5-yl)methyl]acetamide]"
8,1 µg/mL,"CC(=O)NC[C@H]1CN(c2ccc3c(c2)CCN(C(=O)Cc2ccc(I)cc2)CC3)C(=O)O1 [Example 31, N-[((5S)-3-{3-[(4-Iodophenyl)acetyl]-1,2,4,5-tetrahydro-1H-3-benzazepin-7-yl}-2-oxo-1,3-oxazolidin-5-yl)methyl]acetamide]"
9,2 µg/mL,CC(=O)NC[C@H]1CN(c2ccc3c(c2)CCN(C(=O)Cc2cccc(C(F)(F)F)c2)CC3)C(=O)O1 [Example 32]
10,2 µg/mL,CC(=O)NC[C@H]1CN(c2ccc3c(c2)CCN(C(=O)Cc2ccc(C(F)(F)F)cc2)CC3)C(=O)O1 [Example 33]
11,2 µg/mL,CC(=O)CCC(=O)N1CCc2ccc(N3C[C@H](CNC(C)=O)OC3=O)cc2CC1 [Example 34]
12,1 µg/mL,"CC(=O)CCCC(=O)N1CCc2ccc(N3C[C@H](CNC(C)=O)OC3=O)cc2CC1 [Example 35, N-({(5S)-2-Oxo-3-[3-(5-oxohexanoyl)-1,2,4,5-tetrahydro-1H-3-benzazepin-7-yl]-1,3-oxazolidin-5-yl}methyl)acetamide]"
13,< 0.5 µg/mL,"CC(=O)NC[C@H]1CN(c2ccc3c(c2)CCCN(C=O)C3)C(=O)O1 [Example 36, N-{[(5S)-3-(2-Formyl-1,3,4,5-tetrahydro-1H-2-benzazepin-7-yl)-2-oxo-1,3-oxazolidin-5-yl]methyl}acetamide]"
14,1 µg/mL,"CC(=O)NC[C@H]1CN(c2ccc3c(c2)CCCN(C(=O)CO)C3)C(=O)O1 [Example 37, N-{[(5S)-3-(2-Glycoloyl-1,3,4,5-tetrahydro-1H-3-benzazepin-7-yl)-2-oxo-1,3-oxazolidin-5-yl]methyl}acetamide]"
15,2 µg/mL,"CC(=O)NC[C@H]1CN(c2ccc3c(c2)CCCN(C(C)=O)C3)C(=O)O1 [Example 38, N-{[(5S)-3-(2-Acetyl-1,3,4,5-tetrahydro-1H-2-benzazepin-7-yl)-2-oxo-1,3-oxazolidin-5-yl]methyl}acetamide]"
16,1 µg/mL,"CC(=O)NC[C@H]1CN(c2ccc3c(c2)CCCN(C(=O)Nc2ccccc2)C3)C(=O)O1 [Example 40, 7-{(5S)-5-[(Acetylamino)methyl]-2-oxo-1,3-oxazolidin-3-yl}-N-phenyl-1,3,4,5-tetrahydro-2H-2-benzazepine-2-carboxamide]"
17,0.125 µg/mL,"CC(=S)NC[C@H]1CN(c2ccc3c(c2)CCN(C(=O)CO)CC3)C(=O)O1 [Example 41, N-{[(5S)-3-(3-Glycoloyl-1,2,4,5-tetrahydro-1H-3-benzazepin-7-yl)-2-oxo-1,3-oxazolidin-5-yl]methyl}ethanethioamide]"
18,0.5 µg/mL,"CC(=O)NC[C@H]1CN(c2ccc3c(c2)CCN(c2nnc(N)s2)CC3)C(=O)O1 [Example 42, N-({(5S)-3-[3-(5-Amino-1,3,4-thiadiazol-2-yl)-1,2,4,5-tetrahydro-1H-3-benzazepin-7-yl]-2-oxo-1,3-oxazolidin-5-yl}methyl)acetamide]"
